Biological target: T1, HDAC6 (Homo sapiens, UniProt Q9UBN7)
T1 construct: made in house; host or cells: E. coli BL21 (DE3), pET-28a plasmid
T1 sequence (Q9UBN7 1-1215): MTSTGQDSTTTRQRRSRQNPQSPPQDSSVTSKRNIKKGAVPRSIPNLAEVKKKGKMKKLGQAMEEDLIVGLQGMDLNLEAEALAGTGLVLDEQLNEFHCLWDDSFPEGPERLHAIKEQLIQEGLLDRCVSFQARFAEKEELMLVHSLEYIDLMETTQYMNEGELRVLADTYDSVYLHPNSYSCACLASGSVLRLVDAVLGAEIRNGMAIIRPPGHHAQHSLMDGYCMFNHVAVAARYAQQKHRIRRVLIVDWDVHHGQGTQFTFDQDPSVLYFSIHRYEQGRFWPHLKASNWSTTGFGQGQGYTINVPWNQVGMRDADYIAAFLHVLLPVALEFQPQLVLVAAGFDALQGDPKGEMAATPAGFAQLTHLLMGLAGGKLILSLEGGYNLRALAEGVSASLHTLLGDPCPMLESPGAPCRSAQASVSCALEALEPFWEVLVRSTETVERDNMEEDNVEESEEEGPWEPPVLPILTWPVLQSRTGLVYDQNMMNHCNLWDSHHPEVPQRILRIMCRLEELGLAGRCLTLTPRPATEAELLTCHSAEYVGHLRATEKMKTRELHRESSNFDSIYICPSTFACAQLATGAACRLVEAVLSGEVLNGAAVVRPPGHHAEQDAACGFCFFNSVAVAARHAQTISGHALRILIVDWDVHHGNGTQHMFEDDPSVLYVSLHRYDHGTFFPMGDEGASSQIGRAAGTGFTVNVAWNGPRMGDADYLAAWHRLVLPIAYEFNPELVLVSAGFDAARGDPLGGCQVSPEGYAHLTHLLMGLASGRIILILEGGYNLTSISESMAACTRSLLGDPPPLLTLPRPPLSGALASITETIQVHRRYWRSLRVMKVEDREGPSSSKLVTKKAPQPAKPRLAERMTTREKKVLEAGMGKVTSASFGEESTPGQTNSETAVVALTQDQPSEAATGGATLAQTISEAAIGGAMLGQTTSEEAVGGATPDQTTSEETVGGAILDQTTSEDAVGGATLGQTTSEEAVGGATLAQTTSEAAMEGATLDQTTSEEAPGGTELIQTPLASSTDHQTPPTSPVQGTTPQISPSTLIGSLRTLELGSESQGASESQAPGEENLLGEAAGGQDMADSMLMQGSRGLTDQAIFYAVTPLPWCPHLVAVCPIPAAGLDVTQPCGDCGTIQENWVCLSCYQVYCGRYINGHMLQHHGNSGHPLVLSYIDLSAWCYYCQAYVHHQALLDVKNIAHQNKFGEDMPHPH
Assay: HDAC6 enzyme inhibition, fluorescence assay
Type: biochemical
Conditions: for IC50: 7 concentrations, 4-fold dilution from 250 nM, 4 hours substrate incubation at room temperature; for Hill Slope: Hill slope of fitted dose-effect curve (GraphPad Prism); for Emax: top of fitted dose-effect curve of inhibition rate (GraphPad Prism)
Method: The compounds to be tested were balanced to room temperature, and the compounds were diluted 4 times with DMSO in a 384-well plate, with a starting working concentration of 250 nM and a total of 7 concentration gradients. 250 nl of the diluted drug solution was transferred to the 384-well reaction plate using Echo 550, where 250 nl of DMSO was transferred to the control wells Max and Min wells: the HDAC6 enzyme stock solution was diluted to 1.67× with 1× enzyme reaction system buffer solution; the reaction substrate was diluted to 2.5× with 1× enzyme reaction system buffer solution: 15 μl of the above diluted enzyme working solution was added to each reaction well, and 15 μl of 1× enzyme reaction system buffer solution was added to the Min well. Incubate at room temperature for 15 min; add 10 μl of the above-diluted enzyme reaction substrate to each reaction well and incubate at room temperature for 4 hours to allow the reaction to proceed fully; add 3.5×Trypsin reaction stop solution to each reaction well and incubate at 37° C. for 90 min to terminate the reaction; read the fluorescence signal at the end of the reaction on the microplate reader.
The calculation formula for the inhibition rate of the compound on HDAC6 is as follows:
Where […] is the mean of the detection values of the sample wells of each Max well (only DMSO and enzyme); […] represents the average value of the detection values of each Min well (without enzyme); Sample Signal is the mean of the detection values of each compound-treated well. The dose-effect curve was fitted using GraphPad Prism software, and the IC50 of the compound on enzyme inhibition was calculated (as shown in Table 5).

Structure (SMILES)	IC50	Hill Slope	Emax
O=C(OCc1ccccn1)C1CCC(COC(=O)C2C[Se]C(O)CN2S(=O)(=O)c2ccccc2)CC1 (stereo not drawn) [Compound 2]	0.85 nM	1.1	99%
Cc1ccccc1S(=O)(=O)N1CC(O)CCC1C(=O)OCCc1cnccc1C(=O)OCc1ccncc1 (stereo not drawn) [Compound 4]	13.3 nM	1.06	91.4%
Cc1ccc(C(=O)C(=O)N2CC(O)SCC2C(=O)OCc2cc(C(=O)OCc3cccc(Br)c3)ccn2)cc1 (stereo not drawn) [Compound 6]	0.75 nM	1.1	100%
Cc1ccccc1C(=O)C(=O)N1CC(O)OCC1C(=O)OCc1ccccc1C(=O)OCc1ccccc1Cl (stereo not drawn) [Compound 8]	2.9 nM	1.5	101%
Cc1ccc(S(=O)(=O)N2CC(O)CCC2C(=O)OCc2ccc(C(=O)OCc3ccccc3Cl)cn2)cc1 (stereo not drawn) [Compound 9]	19.4 nM	0.8205	96.4%
Cc1ccc(S(=O)(=O)N2CC(O)CCC2C(=O)OCCc2cccc(C(=O)OCc3ccccc3Cl)c2)cc1 (stereo not drawn) [Compound 10]	1.5 nM	0.8	98%
COc1ccc(COC(=O)c2ccc(CCOC(=O)C3C[Se]C(O)CN3C(=O)C(=O)c3ccncc3)nc2)cc1 (stereo not drawn) [Compound 12]	0.41 nM	1.1	101%
O=C(OCC1CCCCC1)c1ccnc(CCOC(=O)C2C[Se]C(O)CN2C(=O)C(=O)c2cccc3ccccc23)c1 (stereo not drawn) [Compound 14]	132 nM	0.8	100%
O=C(OCC1CCCCC1)c1ccc(COC(=O)C2CCC(O)CN2C(=O)C(=O)c2cccc3ccccc23)nc1 (stereo not drawn) [Compound 15]	5.99 nM	0.8638	106%
CC(COC(=O)c1cccc(COC(=O)C2COC(O)CN2C(=O)C(=O)C2=Cc3ccccc3C2)c1)c1ccccc1 (stereo not drawn) [Compound 16]	3.9 nM	1	99%
COc1cccc(COC(=O)c2cccc(CCOC(=O)C3CCC(O)CN3C(=O)C(=O)C3=Cc4ccccc4C3)c2)c1 (stereo not drawn) [Compound 17]	0.58 nM	1.1	102%

Further lines, results first:

IC50	Hill Slope	Emax	Structure (SMILES)
0.63 nM	1.2	96%	O=C(OCC1CCCCC1)c1ccc(COC(=O)C2COC(O)CN2C(=O)C(=O)c2cc3ccccc3[nH]2)nc1 (stereo not drawn) [Compound 1]
0.85 nM	0.9	102%	O=C(C(=O)N1CC(O)OCC1C(=O)OCCC1CCCCC1C(=O)OCc1ccc(Cl)cc1)c1ccccn1 (stereo not drawn) [Compound 7]
0.23 nM	1	100%	O=C(C(=O)N1CC(O)CCC1C(=O)OCCC1CCCCC1C(=O)OCc1cccc(Br)c1)c1cc2ccccc2[nH]1 (stereo not drawn) [Compound 11]
2.2 nM	1.6	98%	O=C(C(=O)N1CC(O)CCC1C(=O)OCCc1ccccc1C(=O)OCCc1ccccc1)c1ccccn1 (stereo not drawn) [Compound 13]
0.92 nM	1	102%	O=C(OCc1ccncc1)c1ccnc(CCOC(=O)C2CSC(O)CN2C(=O)C(=O)c2ccccn2)c1 (stereo not drawn) [Compound 18]
2.6 nM	1.6	96%	O=C(C(=O)N1CC(O)SCC1C(=O)OCCC1CCCCC1C(=O)OCc1ccccn1)c1cc2ccccc2[nH]1 (stereo not drawn) [Compound 19]
53.8 nM	0.83	99.3%	O=C(OCc1ccccc1Cl)c1ccnc(CCOC(=O)C2CCC(O)CN2C(=O)C(=O)c2ccccn2)c1 (stereo not drawn) [Compound 20]

Source: patent US20250340863A1, “POLYPEPTIDE-ENCODED LIBRARY AND SCREENING METHOD USING SAME” (WHOLESOME FUTURE LIMITED, priority 2022, published 2025)
